# System: recombinant T. cruzi proteins
# Experiment: Luminex-based multiplex serological assay (IgG to recombinant T. cruzi proteins)
# Assay type: in vivo, rhesus macaques (Macaca mulatta)
# Settings: treated animal T19
# Protocol: Luminex-based multiplex serological assays were performed as previously described, [17]. For a number of smaller proteins, fusions of up to 2 individual genes are employed for some target proteins in order to expand the array of antibodies being detected while controlling costs and complexity of the assay. (TritrypDb.org identifiers: Tc1= fusion of TcBrA4_0116860 and TcYC6_0028190; Tc2= fusion of TcBrA4_0088420 and TcBrA4_0101960; Tc3 = fusion of TcBrA4_0104680 and TcBrA4_0101980; Tc4= fusion of TcBrA4_0028480 and TcBrA4_0088260; Tc5 = fusion of TcYC6_0100010 and TcBrA4_0074300; Tc7 = fusion of TcYC6_0083710 and TcBrA4_0130080; Tc8 = TcYC6_0037170; Tc11 = TcYC6_0124160; Tc17 = fusion of TcBrA4_0028230 and TcBrA4_0029760; Kn107 = TcCLB.508355.250; G10 = TcCLB.504199.20). Macaque antibody binding to individual beads in the Multiplex assays was detected with donkey anti-human IgG (H+L) conjugated to phycoerythrin (Jackson ImmunoResearch) in a 1:200 dilution.
compound,measurement,setting,value
Cc1c(C(=O)N[C@H](C(=O)OCC2CCOCC2)C(C)C)ccc2c1B(O)OC2 [AN15368],IgG response to G10 (36),2018-01-23,14.8
same,IgG response to Kn107 (20),2018-01-23,214.8
same,IgG response to Tc1 (3),2018-01-23,4009.3
same,IgG response to Tc2 (6),2018-01-23,590.8
same,IgG response to Tc3 (11),2018-01-23,-15.0
same,IgG response to Tc4 (16),2018-01-23,80.0
same,IgG response to Tc5 (22),2018-01-23,19.8
same,IgG response to Tc7 (27),2018-01-23,2161.8
same,IgG response to Tc8 (31),2018-01-23,13766.8
same,IgG response to Tc11 (35),2018-01-23,289.0
same,IgG response to Tc17 (51),2018-01-23,2186.0
same,IgG response to Tc lysate (50),2018-01-23,2937.3
same,IgG response to G10 (36),2018-02-27,83.0
same,IgG response to Kn107 (20),2018-02-27,-14.5
same,IgG response to Tc1 (3),2018-02-27,2826.0
same,IgG response to Tc2 (6),2018-02-27,413.5
same,IgG response to Tc3 (11),2018-02-27,17.5
same,IgG response to Tc4 (16),2018-02-27,111.0
same,IgG response to Tc5 (22),2018-02-27,6.8
same,IgG response to Tc7 (27),2018-02-27,1831.8
same,IgG response to Tc8 (31),2018-02-27,11208.3
same,IgG response to Tc11 (35),2018-02-27,163.8
same,IgG response to Tc17 (51),2018-02-27,1943.5
same,IgG response to Tc lysate (50),2018-02-27,1833.0
same,IgG response to G10 (36),2018-03-28,-25.5
same,IgG response to Kn107 (20),2018-03-28,5.5
same,IgG response to Tc1 (3),2018-03-28,1762.3
same,IgG response to Tc2 (6),2018-03-28,386.3
same,IgG response to Tc3 (11),2018-03-28,60.0
same,IgG response to Tc4 (16),2018-03-28,6.0
same,IgG response to Tc5 (22),2018-03-28,32.5
same,IgG response to Tc7 (27),2018-03-28,1344.3
same,IgG response to Tc8 (31),2018-03-28,8779.3
same,IgG response to Tc11 (35),2018-03-28,66.5
same,IgG response to Tc17 (51),2018-03-28,1378.0
same,IgG response to Tc lysate (50),2018-03-28,1572.0
same,IgG response to G10 (36),2019-02-19,-6.3
same,IgG response to Kn107 (20),2019-02-19,9.8
same,IgG response to Tc1 (3),2019-02-19,1092.5
same,IgG response to Tc2 (6),2019-02-19,189.8
same,IgG response to Tc3 (11),2019-02-19,63.8
same,IgG response to Tc4 (16),2019-02-19,9.0
same,IgG response to Tc5 (22),2019-02-19,22.0
same,IgG response to Tc7 (27),2019-02-19,910.3
same,IgG response to Tc8 (31),2019-02-19,5960.0
same,IgG response to Tc11 (35),2019-02-19,51.0
same,IgG response to Tc17 (51),2019-02-19,927.0
same,IgG response to Tc lysate (50),2019-02-19,1211.8
same,IgG response to G10 (36),2020-06-18,-46.3
same,IgG response to Kn107 (20),2020-06-18,15.0
same,IgG response to Tc1 (3),2020-06-18,454.3
same,IgG response to Tc2 (6),2020-06-18,7.3
same,IgG response to Tc3 (11),2020-06-18,76.3
same,IgG response to Tc4 (16),2020-06-18,6.0
same,IgG response to Tc5 (22),2020-06-18,2.0
same,IgG response to Tc7 (27),2020-06-18,373.3
same,IgG response to Tc8 (31),2020-06-18,3159.8
same,IgG response to Tc11 (35),2020-06-18,48.5
same,IgG response to Tc17 (51),2020-06-18,793.0
same,IgG response to Tc lysate (50),2020-06-18,640.8
same,IgG response to G10 (36),2021-05-20,11.0
same,IgG response to Kn107 (20),2021-05-20,65.5
same,IgG response to Tc1 (3),2021-05-20,42.3
same,IgG response to Tc2 (6),2021-05-20,-7.8
same,IgG response to Tc3 (11),2021-05-20,3.8
same,IgG response to Tc4 (16),2021-05-20,-20.3
same,IgG response to Tc5 (22),2021-05-20,1.5
same,IgG response to Tc7 (27),2021-05-20,293.3
same,IgG response to Tc8 (31),2021-05-20,1814.0
same,IgG response to Tc11 (35),2021-05-20,133.3
same,IgG response to Tc17 (51),2021-05-20,399.3
same,IgG response to Tc lysate (50),2021-05-20,384.5

# Reference: PMC9519446, “Discovery of an Orally Active Benzoxaborole Prodrug Effective in the Treatment of Chagas Disease in Non-human Primates” (Nature microbiology, 2022)
